From paper PMC8635029 (Frontiers in Pharmacology, 2021)
Counter-ions that a name gives are not always drawn.

Experiments:
ICR mice [1] = test: Measurement of respiration (whole body plethysmography); format: in vivo
Description: A whole body plethysmography (DSI, US) was used to measure respiration in freely moving ICR mice (half male and half female) as described previously ([Manglik et al., 2016]; [Hill et al., 2018a]; [Hill et al., 2018b]) with some modifications. The respiratory frequency was recorded and then averaged for over 5-min period. The baseline values were recorded for 10 min before dosing. The mice were then removed from the chambers and given drugs, and respiration was then measured for 45 min.

mice = test: Locomotor activity test (sedation)
ICR mice [2] = test: Compound 48/80-induced scratching test; format: in vivo; conditions: 0.02 mg/kg
Description: After acclimatization for 30–60 min in Plexiglas chambers, the male ICR mice were given vehicle or test compounds. Compound 48/80 (50 μg, 0.1 ml) was subcutaneously injected into the back of the neck at 15 min after drug administration ([Salaga et al., 2015]). The mice were immediately placed back into the chambers and the scratching behaviors were recorded for 30 min ([Kobayashi et al., 2003]; [Inan et al., 2009]; [Hachisuka et al., 2010]). One bout of scratching was defined as the mouse lifting its hindpaw towards the injection site to scratch until it either licked or bite the hindpaw or placed it back down on the floor ([Nojima and Carstens, 2003]). The percentage inhibition of scratching was calculated by the following formula: % antipruritis = (Bv−Bt)/Bv × 100, where Bv is the bouts of scratching in vehicle group and Bt is the bouts of scratching in treatment groups.

ICR mice [3] = test: Acetic acid-induced writhing test; format: in vivo; conditions: 10 mg/kg s.c., 24 h post-dosing
Description: ICR mice (half male and half female) were used in this assay. […] A writhe was defined as a wave of contraction of the abdominal musculature followed by extension of the hind limbs ([Wang et al., 2018]). The percentage inhibition of writhes was calculated by the following formula: % antinociception = (Nv−Nt)/Nv × 100, where Nv is the number of writhes in vehicle group and Nt is the number of writhes in treatment groups.

C57BL/6J mice = test: Hot-plate test; format: in vivo; conditions: 10 mg/kg
Description: The hot-plate test was performed according to previous reports ([DeWire et al., 2013]; [Hill et al., 2018a]; [Wang et al., 2018]). Female C57BL/6J mice were individually placed on a hot plate at 56°C and the latency to licking or jumping was then recorded. A cut-off time of 30 s was imposed in order to prevent tissue damage. Before drug administration, the latency of each mouse was measured and defined as the pre-drug value. The animals with a pre-drug value of greater than 20 s were excluded.

SD rats [4] = test: Hindpaw incision model (mechanical allodynia, von Frey); format: in vivo; conditions: 10 mg/kg
Description: The surgery was conducted as reported previously ([Brennan et al., 1996]; [Whiteside et al., 2004]; [Biddlestone et al., 2007]). Male SD rats were anesthetized with isoflurane inhalation (3–5%) and the plantar surface of the left hindpaw was sterilized using iodophor solution. A 1-cm longitudinal incision was made on the plantar surface with no. Eleven scalpel blade, starting at 0.5 cm from the heel and extending toward the toes. The deep fascia was cut to expose the flexor digitorum brevis muscle. The muscle was elevated with curved forceps and incised longitudinally with the tip of a scalpel blade without disturbing the origin and insertion. […] The responses to mechanical stimulation of the hindpaws were recorded at 2 h post-surgery and the mechanical pain thresholds were defined as pre-dose values. After dividing into different groups according to the pre-dose values, the animals were administered vehicle (normal saline) or test compounds and the mechanical pain thresholds were measured at 15 min and 24 h post-dose.
(§1) The rats were placed individually in Plexiglas chambers on a metallic mesh floor and allowed to acclimatize for 30–60 min ([Tsuda et al., 2011]). Mechanical allodynia was determined by probing the plantar surface of the hindpaw from below the mesh floor with a series of calibrated von Frey filaments (Stoelting) in log increments of force ([Lai et al., 2006]). […]

SD rats [5] = test: Chronic constriction injury (CCI) model (mechanical allodynia, von Frey); format: in vivo; conditions: 10 mg/kg
Description: The CCI surgery was performed as described previously with slight modifications ([Bennett and Xie, 1988]). Male SD rats were used in the CCI model. After isoflurane inhalation anesthesia, the femoral skin of the left hindlimb was incised and the sciatic nerve was exposed by blunt dissection of the biceps femoris muscle with a pair of forceps ([Chen et al., 2018]). A 2 mm-long polyethylene cuff was successively implanted around the nerve and the incision was then closed with skin stapler ([Bailey and Ribeiro-da-Silva, 2006]; [Balasubramanyan et al., 2006]). Animals were returned to their cages after recovering from anesthesia. Seventeen days after the surgery, the responses to mechanical stimulation of the hindpaws were measured before the compounds were administered. The rats were then divided into different groups according to the pre-administration values. After the animals were given vehicle or test compounds, the mechanical pain thresholds were taken at multiple time points.
as §1

SMILES: CC(C)C[C@@H](NC(=O)[C@@H](Cc1ccccc1)NC(=O)[C@H](N)Cc1ccccc1)C(=O)N[C@H](CCCCN)C(=O)N1CCC(N)(C(=O)O)CC1 [CR845]
- effect on respiratory rate (ICR mice [1]; 2 mg/kg): significant decrease
- time post-administration at which respiratory rate was significantly decreased (ICR mice [1]; 2 mg/kg): 25 min
- time post-drug at which effects on respiratory rate reached a peak (ICR mice [1]; 2 mg/kg): 45 min
- effect on locomotor activity / total distance traveled (mice; 0.4 mg/kg, 15 min post-dosing): obvious decrease

SMILES: CN(C(=O)/C=C/c1ccoc1)[C@@H]1CC[C@@]2(O)[C@H]3Cc4ccc(O)c5c4[C@@]2(CCN3CC2CC2)[C@H]1O5 [nalfurafine, nalfurafine hydrochloride]
- inhibitory rate on scratching responses (ICR mice [2]): 94.30%

SMILES: CN1CC[C@]23c4c5ccc(O)c4O[C@H]2[C@@H](O)C=C[C@H]3[C@H]1C5 [morphine, morphine sulfate]
- efficacy in writhing test (ICR mice [3]): vanished
- central antinociceptive effect in hot-plate test (C57BL/6J mice): almost complete efficacy
- effect on respiratory rate (ICR mice [1]; 10 mg/kg): significantly reduced
- effect on hindpaw incision-induced mechanical allodynia (SD rats [4]; 15 min after dosing): completely inhibited
- effect on pain behaviors (SD rats [4]; 24 h post-dosing): no any effect
- effect on CCI-induced mechanical allodynia (SD rats [5]; 15 min after dosing): completely inhibited
- effect on pain behaviors (SD rats [5]; 24 h post-dosing): no any effect
- effect on distance traveled (mice; 10 mg/kg): reduced remarkedly
